From US8158628B2, “Sulfonylated 1,2,3,4-tetrahydropyrrolo[1,2-a]pyrazine compounds and their use as pharmaceuticals” (Gruenenthal GmbH, priority 2009, dated 2012)

Target: T1, B1R of the rat (Rattus norvegicus, UniProt P97583)
T1 construct: expressed in transfected cells; host or cells: CHO K1 cells (Chinese hamster ovary), stably transfected
T1 sequence (P97583 1-337): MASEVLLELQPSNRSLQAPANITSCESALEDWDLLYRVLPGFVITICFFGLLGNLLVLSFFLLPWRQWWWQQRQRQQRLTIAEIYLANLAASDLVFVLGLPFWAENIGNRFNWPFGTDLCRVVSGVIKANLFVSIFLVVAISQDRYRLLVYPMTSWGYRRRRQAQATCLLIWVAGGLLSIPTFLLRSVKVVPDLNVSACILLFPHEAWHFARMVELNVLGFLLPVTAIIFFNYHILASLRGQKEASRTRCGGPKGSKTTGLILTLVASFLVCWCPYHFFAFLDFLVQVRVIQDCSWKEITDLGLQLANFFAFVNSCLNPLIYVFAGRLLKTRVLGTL
Assay: FLIPR Ca2+ functional assay, B1R antagonism, rat B1R in CHO K1 cells
Type: cell-based
Conditions: test substance 10 μM; rB1R CHO K1 cells; agonist Des-Arg9 bradykinin at EC80; % of maximum achievable inhibition
Description: The agonistic or antagonistic action of substances on the bradykinin 1 receptor (B1R) of the human and rat species can be quantified with ectopically expressing cell lines (CHO K1 cells) and with the aid of a Ca^2+-sensitive dye (Fluo-4) using a fluorescent imaging plate reader (FLIPR). The value in % activation is based on the Ca^2+ signal after addition of Lys-Des-Arg^9 bradykinin (0.5 nM) or Des-Arg^9 bradykinin (100 nM). Antagonists lead to a suppression of the Ca^2+ influx following administration of the agonist. The % inhibition in comparison with the maximum achievable inhibition is indicated.
1. Functional Investigation on the Bradykinin 1 Receptor (B1R) The agonistic or antagonistic action of substances can be determined on the bradykinin 1 receptor (B1R) of the human and rat species with the following assay. According to this assay, the Ca^2+ inflow through the channel is quantified with the aid of a Ca^2+-sensitive dye (Fluo-4 type, Molecular Probes Europe BV, Leiden, Netherlands) in a fluorescent imaging plate reader (FLIPR, Molecular Devices, Sunnyvale, USA). 2. Method: Chinese hamster ovary cells (CHO K1 cells) which are stably transfected with the human B1R gene (hB1R cells) or the B1R gene of the rat (rB1R cells) are used. For functional investigations these cells are plated-out onto black 96-well plates with a clear base (BD Biosciences, Heidelberg, Germany or Greiner, Frickenhausen, Germany) in a density of 20,000-35,000 cells/well. Overnight the cells are incubated at 37° C. and 5% CO2 in culture medium (hB1R cells: Ham's Nutrient Mixture F12, Gibco Invitrogen GmbH, Karlsruhe, Germany or DMEM, Sigma-Aldrich, Taufkirchen, Germany; rB1R cells: D-MEM/F12, Gibco Invitrogen, Karlsruhe, Germany) with 10 vol. % FBS (foetal bovine serum, Gibco Invitrogen GmbH, Karlsruhe, Germany or PAN Biotech GmbH, Aidenbach, Germany).
On the following day the cells are loaded with 2.13 μM Fluo-4 (Molecular Probes Europe BV, Leiden, Netherlands) in HBSS buffer (Hank's buffered saline solution, Gibco Invitrogen GmbH, Karlsruhe, Germany) with 2.5 mM probenecid (Sigma-Aldrich, Taufkirchen, Germany) and 10 mM HEPES (Sigma-Aldrich, Taufkirchen, Germany) for 60 min at 37° C. The plates are subsequently washed twice with HBSS buffer, and HBSS buffer which additionally contains 0.1% BSA (bovine serum albumin; Sigma-Aldrich, Taufkirchen, Germany), 5.6 mM glucose and 0.05% gelatine (Merck KGaA, Darmstadt, Germany) is added. After a further incubation of 20 minutes at RT, the plates are inserted into the FLIPR for Ca^2+ measurement. Alternatively they are washed with buffer A (15 mM HEPES, 80 mM NaCl, 5 mM KCl, 1.2 mM CaCl2, 0.7 mM MgSO4, 2 g/l glucose, 2.5 mM probenecid) and loaded with buffer A with added 2.5 μM Fluo-4 and 0.025% Pluronic F127 (Sigma-Aldrich, Taufkirchen, Germany). The cells are then washed twice with buffer A and incubated for 30 minutes with buffer A, which additionally contains 0.05% BSA and 0.05% gelatine, at RT and then used for Ca^2+ measurement in the FLIPR. The Ca^2+-dependent fluorescence is measured here before and after addition of substances (λex=488 nm, λem=540 nm). The quantification is performed by measuring the highest fluorescence intensity (FC, fluorescence counts) over time.
The FLIPR protocol comprises two additions of substance. Test substances (10 μM) are first pipetted onto the cells and the Ca^2+ inflow is compared with the control (hB1R: Lys-Des-Arg^9 bradykinin >=50 nM; rB1R: Des-Arg^9 bradykinin 10 μM). The value in % activation based on the Ca^2+ signal after addition of Lys-Des-Arg^9 bradykinin (>=50 nM) or Des-Arg^9 bradykinin (10 μM) is obtained therefrom. After incubation for 10-20 minutes, Lys-Des-Arg^9 bradykinin (hB1R) or Des-Arg^9 bradykinin (rB1R) is applied in the EC80 concentration and the inflow of Ca^2+ is likewise determined.
Antagonists lead to a suppression of the Ca^2+ inflow. The % inhibition in comparison with the maximum achievable inhibition is calculated. […]

inhibition at 10 µM	Compound
32.9%	Cc1ccc2[nH]c(C3CCN(C(=O)CC4c5cccn5CCN4S(=O)(=O)c4ccccc4)CC3)nc2c1 (stereo not drawn) [Example 180, 2-[2-(Benzenesulfonyl)-1,2,3,4-tetrahydro-pyrrolo[1,2-a]pyrazin-1-yl]-1-[4-(5-methyl-1H-benzoimidazol-2-yl)-piperidin-1-yl]-ethanone]
17.3%	O=C(CC1c2cccn2CCN1S(=O)(=O)c1ccccc1)N1CCN(Cc2ccccc2F)CC1 (stereo not drawn) [Example 234, 2-[2-(Benzenesulfonyl)-1,2,3,4-tetrahydro-pyrrolo[1,2-a]pyrazin-1-yl]-1-[4-[(2-fluorophenyl)-methyl]-piperazin-1-yl]-ethanone]
20.8%	O=C(CC1c2cccn2CCN1S(=O)(=O)c1ccccc1)N1CCN(c2ncccn2)CC1 (stereo not drawn) [Example 179, 2-[2-(Benzenesulfonyl)-1,2,3,4-tetrahydro-pyrrolo[1,2-a]pyrazin-1-yl]-1-(4-pyrimidin-2-yl-piperazin-1-yl)-ethanone]
17.2%	Cc1ccc(C)n1CCN1CCN(C(=O)CC2c3cccn3CCN2S(=O)(=O)c2ccccc2)CC1 (stereo not drawn) [Example 178, 2-[2-(Benzenesulfonyl)-1,2,3,4-tetrahydro-pyrrolo[1,2-a]pyrazin-1-yl]-1-[4-[2-(2,5-dimethyl-1H-pyrrol-1-yl)-ethyl]-piperazin-1-yl]-ethanone]
37.9%	COc1cc(C)c(S(=O)(=O)N2CCn3cccc3C2CC(=O)NCCCN2CCOCC2)c(C)c1 (stereo not drawn) [Example 142, 2-[2-[(4-Methoxy-2,6-dimethyl-phenyl)sulfonyl]-1,2,3,4-tetrahydro-pyrrolo[1,2-a]pyrazin-1-yl]-N-(3-morpholin-4-yl-propyl)-acetamide]
6.85%	COc1cc(C)c(S(=O)(=O)N2CCn3cccc3C2CC(=O)N2CCN(Cc3ccc4c(c3)OCO4)CC2)c(C)c1 (stereo not drawn) [Example 246, 1-[4-(1,3-Benzodioxol-5-yl-methyl)-piperazin-1-yl]-2-[2-[(4-methoxy-2,6-dimethyl-phenyl)sulfonyl]-1,2,3,4-tetrahydro-pyrrolo[1,2-a]pyrazin-1-yl]-ethanone]
9.23%	Cc1cc(C)c(CN2CCN(C(=O)CC3c4cccn4CCN3S(=O)(=O)c3cccc(C(F)(F)F)c3)CC2)c(C)c1 (stereo not drawn) [Example 236, 2-[2-[[3-(Trifluoromethyl)phenyl]sulfonyl]-1,2,3,4-tetrahydro-pyrrolo[1,2-a]pyrazin-1-yl]-1-[4-[(2,4,6-trimethyl-phenyl)-methyl]-piperazin-1-yl]-ethanone]
2.37%	Cc1cccc(Cl)c1S(=O)(=O)N1CCn2cccc2C1CC(=O)N1CCN(CCO)CC1 (stereo not drawn) [Example 263, 2-[2-[(2-Chloro-6-methyl-phenyl)sulfonyl]-1,2,3,4-tetrahydro-pyrrolo[1,2-a]pyrazin-1-yl]-1-[4-(2-hydroxy-ethyl)-piperazin-1-yl]-ethanone]
19.4%	CC1CCCC(C)N1CCCNC(=O)CC1c2cccn2CCN1S(=O)(=O)c1cccc(C(F)(F)F)c1 (stereo not drawn) [Example 184, N-[3-(2,6-Dimethyl-piperidin-1-yl)-propyl]-2-[2-[[3-(trifluoromethyl)phenyl]sulfonyl]-1,2,3,4-tetrahydro-pyrrolo[1,2-a]pyrazin-1-yl]-acetamide]
20.4%	O=C(CC1c2cccn2CCN1S(=O)(=O)c1cccc(C(F)(F)F)c1)N1CCN(c2ccccn2)CC1 (stereo not drawn) [Example 190, 1-(4-Pyridin-2-yl-piperazin-1-yl)-2-[2-[[3-(trifluoromethyl)phenyl]sulfonyl]-1,2,3,4-tetrahydro-pyrrolo[1,2-a]pyrazin-1-yl]-ethanone]
37.8%	COc1cc(C)c(S(=O)(=O)N2CCn3cccc3C2CC(=O)N2CCC(O)(c3cccnc3)CC2)c(C)c1 (stereo not drawn) [Example 141, 1-(4-Hydroxy-4-pyridin-3-yl-piperidin-1-yl)-2-[2-[(4-methoxy-2,6-dimethyl-phenyl)sulfonyl]-1,2,3,4-tetrahydro-pyrrolo[1,2-a]pyrazin-1-yl]ethanone]
-3.52%	O=C(CC1c2cccn2CCN1S(=O)(=O)c1ccccc1)N1CCN(Cc2ccc(Cl)c(Cl)c2)CC1 (stereo not drawn) [Example 266, 2-[2-(Benzenesulfonyl)-1,2,3,4-tetrahydro-pyrrolo[1,2-a]pyrazin-1-yl]-1-[4-[(3,4-dichlorophenyl)-methyl]-piperazin-1-yl]-ethanone]
9.05%	COc1cc(C)c(S(=O)(=O)N2CCn3cccc3C2CC(=O)N2CCN(CCO)CC2)c(C)c1 (stereo not drawn) [Example 258, 1-[4-(2-Hydroxy-ethyl)-piperazin-1-yl]-2-[2-[(4-methoxy-2,6-dimethyl-phenyl)sulfonyl]-1,2,3,4-tetrahydro-pyrrolo[1,2-a]pyrazin-1-yl]-ethanone]
5.54%	COc1cc(C)c(S(=O)(=O)N2CCn3cccc3C2CC(=O)N(C)C(CN2CCOCC2)c2ccccc2)c(C)c1 (stereo not drawn) [Example 256, 2-[2-[(4-Methoxy-2,6-dimethyl-phenyl)sulfonyl]-1,2,3,4-tetrahydro-pyrrolo[1,2-a]pyrazin-1-yl]-N-methyl-N-(2-morpholin-4-yl-1-phenyl-ethyl)-acetamide]
55.9%	COc1cc(C)c(S(=O)(=O)N2CCn3cccc3C2CC(=O)N2CCN(Cc3ccc(Cl)cc3)CC2)c(C)c1 (stereo not drawn) [Example 240, 1-[4-[(4-Chlorophenyl)-methyl]-piperazin-1-yl]-2-[2-[(4-methoxy-2,6-dimethyl-phenyl)sulfonyl]-1,2,3,4-tetrahydro-pyrrolo[1,2-a]pyrazin-1-yl]-ethanone]
20.6%	COc1ccc(CN2CCN(C(=O)CC3c4cccn4CCN3S(=O)(=O)c3ccccc3)CC2)cc1 (stereo not drawn) [Example 233, 2-[2-(Benzenesulfonyl)-1,2,3,4-tetrahydro-pyrrolo[1,2-a]pyrazin-1-yl]-1-[4-[(4-methoxyphenyl)-methyl]-piperazin-1-yl]-ethanone]
10.5%	Cc1cccc(Cl)c1S(=O)(=O)N1CCn2cccc2C1CC(=O)N1CCC(N2CCN(C)CC2)CC1 (stereo not drawn) [Example 161, 2-[2-[(2-Chloro-6-methyl-phenyl)sulfonyl]-1,2,3,4-tetrahydro-pyrrolo[1,2-a]pyrazin-1-yl]-1-[4-(4-methyl-piperazin-1-yl)-piperidin-1-yl]-ethanone]
39.7%	Cc1ccc2[nH]c(C3CCN(C(=O)CC4c5cccn5CCN4S(=O)(=O)c4c(C)cccc4Cl)CC3)nc2c1 (stereo not drawn) [Example 163, 2-[2-[(2-Chloro-6-methyl-phenyl)sulfonyl]-1,2,3,4-tetrahydro-pyrrolo[1,2-a]pyrazin-1-yl]-1-[4-(5-methyl-1H-benzoimidazol-2-yl)-piperidin-1-yl]-ethanone]
